Source: patent publication US5296596A, “Hexahydroazepine derivatives, a process for their preparation” (ELF SANOFI, priority 1990, dated 1994)

Experiments:
sigma receptors [1] = test: Binding in vitro on rat cerebral membranes, ligand 3H-DTG
From the text: (§1) These tests have been carried out in vitro on rat cerebral membranes using as ligands either ^3 H-(+)-3 PPP according to Largent et al., J. Phamacol. […] Acad. Sci. USA, 1986, 83, 8784-8788 and in vivo in mice with the ligand ^3 H-3 PPP according to B. Kenneth Koe et al., European J. Pharmacol., 1989, 161, 263-266.

sigma receptors [2] = target: T1, sigma receptors (Rattus norvegicus, UniProt Q9R0C9); test: biochemical; settings: binding in vitro, ligand (+)-3-PPP, rat cerebral membranes
T1 construct: in vitro on rat cerebral membranes; from tissue; host or cells: rat cerebral membranes
From the text: as §1

TCP = test: Binding in vitro, TCP (thienylcyclohexylpiperidine); settings: ligand TCP
dopaminergic receptor(s) = target: T2, dopaminergic receptor(s) (Rattus norvegicus, UniProt P61169); test: biochemical; settings: binding in vitro, ligand spiroperidol
T2 construct: from tissue; host or cells: rat brain, probably striatum (inferred from the cited methods)

sigma receptors [3] = test: In vivo displacement of 3H-(+)-3-PPP at the cerebral level in mice
From the text: as §1

[4] = system: hyperactivity induced by d-amphetamine; test: Antagonism of hyperactivity induced in mice by d-amphetamine; assay type: in vivo; settings: predictive test for antipsychotic activity
sigma receptors [5] = test: Sigma receptor activity/selectivity (test not specified); assay type: binding; settings: from Table I, versus haloperidol

T1 sequence (Q9R0C9 whole entry): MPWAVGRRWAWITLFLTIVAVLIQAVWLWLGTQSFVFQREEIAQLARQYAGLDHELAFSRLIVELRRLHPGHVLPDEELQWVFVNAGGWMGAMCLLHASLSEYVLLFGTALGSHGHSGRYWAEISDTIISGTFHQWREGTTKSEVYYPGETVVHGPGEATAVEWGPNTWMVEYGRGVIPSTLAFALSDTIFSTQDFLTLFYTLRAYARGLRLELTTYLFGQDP
T2 sequence (P61169 whole entry): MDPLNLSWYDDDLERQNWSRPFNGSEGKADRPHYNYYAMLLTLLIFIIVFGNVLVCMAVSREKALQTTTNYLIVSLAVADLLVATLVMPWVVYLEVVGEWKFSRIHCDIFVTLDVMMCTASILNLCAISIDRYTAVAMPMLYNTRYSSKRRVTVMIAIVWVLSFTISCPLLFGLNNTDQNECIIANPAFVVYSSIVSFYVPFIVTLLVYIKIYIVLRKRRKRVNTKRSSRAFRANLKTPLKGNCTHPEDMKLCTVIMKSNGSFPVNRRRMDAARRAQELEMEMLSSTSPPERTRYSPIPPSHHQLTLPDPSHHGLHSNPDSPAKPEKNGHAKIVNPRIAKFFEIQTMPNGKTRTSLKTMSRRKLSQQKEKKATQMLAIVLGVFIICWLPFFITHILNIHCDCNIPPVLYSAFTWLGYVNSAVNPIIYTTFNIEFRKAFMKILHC

IC50 (sigma receptors [1]): 10 nM
IC50 (sigma receptors [2]): 8 nM
IC50 (TCP): > 10000 nM
IC50 (dopaminergic receptor(s)): 10000 nM
SMILES: Cl.Clc1cc(/C=C\CN2CCCCCC2)ccc1C1CCCCC1 [Example 2, cis-3-(Hexahydroazepin-1-yl)-1-(3-chloro-4-cyclohexylphenyl)-1-propene hydrochloride]
displacement of the ligand (+)-3PPP, at the cerebral level (sigma receptors [3]): active
hyperactivity induced by d-amphetamine [4]: active
sigma impact compared with haloperidol (sigma receptors [5]): superior and/or more selective sigma impact than that of haloperidol
